# Like-named read-outs stand apart in the source and are kept apart here.
# Experiments:
# [1] = Single dose rat PK, intramuscular (Example 39); type: in vivo, Male SD rats
# Protocol: (§1) Animals. Animals (Male SD rats ˜200-250 g and Male Beagle dog ˜12-15 kg) were obtained from an approved vendor.
# (§2) Animals were […] at least 12 hours prior to the administration. All animals had access to Certified Rodent and non-Rodent Diet ad libitum 4 hours post dosing.
# (§3) Dose Formulation. The formulations were prepared on the day of dosing. Animals were dosed within four hours after the formulation is prepared. Two 20 μL aliquots of each formulation were removed from each of the formulation solutions, transferred into 1.5 mL of polypropylene microcentrifuge tubes and run dose validation by LC/UV or LC-MS/MS.
# (§4) Dose Administration. For SC/IM dosing, the dose formulation was administered via subcutaneous/intramuscular injection respectively following facility SOPs.
# (§5) Sample Collection. Approximately 200 μL blood was collected from saphenous vein at each time point for rats and 0.5 mL for rhesus macaques. All blood samples were transferred into microcentrifuge tubes containing 4 μL of K2EDTA (0.5M) as anti-coagulant and placed on wet ice until processed for plasma.
# (§6) Blood/Plasma processing. Blood: Blood samples were processed for plasma by centrifugation at approximately 4° C., 3000 g 15 min within half an hour of collection. Plasma samples was stored in polypropylene tubes, quick frozen over dry ice and kept at −70±10° C. until LC/MS/MS analysis.
# (§7) • LC-MS/MS methods for the quantitative determination of test compound in corresponded biological matrix was developed under non-GLP compliance. • A calibration curve with 8 non-zero calibration standards was applied for the method including LLOQ. • A set of QC samples consisting of low, middle, and high concentration was applied for the method. • The study sample analysis will be performed concurrently with a set of calibration standards and two sets of QC samples using the LC-MS/MS method (If sample numbers were more than 48, then two calibration curves with 2 sets of QC samples were applied). • Acceptance criteria: • Linearity: a minimum of 6 calibration standards was back calculated to within ±20% of their nominal values in plasma. • Accuracy: A minimum of 4 out of 6 QC samples was back calculated to within ±20% of their nominal values in plasma. • Specificity: The mean calculated concentration in the single blank matrix should be 0.5 times the LLOQ. • Sensitivity: the LLOQ will be tried to target 1˜3 ng/mL. • Carryover: the mean calculated carry-over concentration in the single blank matrix immediately after the highest standard injection should be LLOQ. If the carryover couldn't meet the criteria, then the percent of carryover should be estimated following in-house bioanalytical SOP.
# Data Analysis. Plasma concentration versus time data was analyzed by non-compartmental approaches using the Phoenix WinNonlin 6.3 software program. Cmax, Tmax, T1/2, AUC(0-1), AUC(0-int), MRT(0-1), MRT(0-int), % F and graphs of plasma concentration versus time profile were reported.
# Bis-DHA prodrug 9 (31 mg/kg equivalent dose of ETV) and ETV (20 mg/kg) were subjected to single dose rat PK studies via intramuscular route of administration. Non-micronized prodrug and ETV were used. […] Enhanced half-life and mean residence life were also observed for prodrug 9 making it suitable as a long-acting agent.
# The data are shown in graphic form in FIG. 18.
# [2] = male, beagle, dog, in vivo, 20 mg/kg
# Protocol: as §1, §2, §3, §4, §5, §6, §7
# (§8) Data Analysis. Plasma concentration versus time data was analyzed by non-compartmental approaches using the Phoenix WinNonlin 6.3 software program.
# The aqueous suspension formulations were derived from 0.5% CMC-Na and 0.5% Tween 80. […] Micronized ETV (D50=2.4 um; D90=5.0 um) and prodrug 29 (D50=1.8 um; D90=4.0 um) and non-micronized prodrug 11 (D50=4.4 um; D90=13.0 um) were used for this study.
# [3] = Single dose dog PK, intramuscular and subcutaneous, monitored 56 days (Example 41); type: in vivo, Male Beagle dog; conditions: dose-normalized
# Protocol: as §1, §2, §3, §4, §5, §6, §7, §8
# The aqueous suspension formulations were derived from 0.5% CMC-Na and 0.5% Tween 80. […] Micronized ETV-palmitate (D50=3.0 um; D90=10.5 um) and prodrug 36 (D50=7.0 um; D90=16.6 um) and non-micronized prodrug 11 (D50=4.4 um; D90=13.0 um) were used for this study.
# The data are shown in graphic form in FIG. 12.
smiles,measurement,setting,value
"C=C1[C@H](CO)[C@@H](O)C[C@@H]1n1cnc2c(=O)[nH]c(N)nc21 [ETV, Entecavir]",d.n. Cmax,"[1]; in vivo, im",91.65 ng/mL/mg/kg
same,Clast,"[1]; male, SD, in vivo",1.4 ng/mL
same,day of Clast,"[1]; male, SD, in vivo",5 days
same,Clast,[2],0.2 ng/mL
same,day of Clast,[2],41 days
same,AUC0-inf,[2]; im,25294 ± 2044 ng·h/mL
same,AUC0-last,[2]; im,25134 ± 1970 ng·h/mL
same,Cmax,[2]; im,2390 ± 219 ng/mL
same,MRT0-inf,[2]; im,30.8 ± 4.8 h
same,T1/2,[2]; im,438 ± 263 h
same,Tmax,[2]; im,2.3 ± 1.2 h
"C=C1[C@H](COC(=O)CC/C=C\C/C=C\C/C=C\C/C=C\C/C=C\C/C=C\CC)[C@@H](OC(=O)CC/C=C\C/C=C\C/C=C\C/C=C\C/C=C\C/C=C\CC)C[C@@H]1n1cnc2c(=O)[nH]c(N)nc21 [Prodrug 9, (4Z,7Z,10Z,13Z,16Z,19Z)-(1S,2R,4S)-4-(2-amino-6-oxo-1H-purin-9(6H)-yl)-2-(((4Z,7Z,10Z,13Z,16Z,19Z)-docosa-4,7,10,13,16,19-hexaenoyloxy)methyl)-3-methylenecyclopentyl docosa-4,7,10,13,16,19-hexaenoate]",half-life and mean residence life,"[1]; single IM dose, compared with ETV",Enhanced
same,d.n. Cmax,"[1]; single IM dose, dose-normalized",0.37 ng/mL/mg/kg
"C=C1[C@H](COC(=O)Cc2ccccc2)[C@@H](OC(=O)Cc2ccccc2)C[C@@H]1n1cnc2c(=O)[nH]c(N)nc21 [Prodrug 11, ((1R,3S,5S)-3-(2-amino-6-oxo-1H-purin-9(6H)-yl)-2-methylene-5-(2-phenylacetoxy)cyclopentyl)methyl 2-phenylacetate]",d.n. AUC0-last,[3]; single IM dose,1286 ng·h/mL/mg/kg
same,d.n. Cmax,[3]; single IM dose,2.2 ng/mL/mg/kg
same,d.n. AUC0-last,[3]; single SC dose,874 ng·h/mL/mg/kg
same,d.n. Cmax,[3]; single SC dose,1.8 ng/mL/mg/kg
C=C1[C@H](CO)[C@@H](OC(=O)Cc2ccccc2)C[C@@H]1n1cnc2c(=O)[nH]c(N)nc21 [Prodrug 36],d.n. AUC0-last,[3]; single SC dose,1586 ng·h/mL/mg/kg
same,d.n. Cmax,[3]; single SC dose,8.2 ng/mL/mg/kg
